{"source": "patent US11883423B2", "about": "“Nucleobase analogue derivatives and their applications” (BOARD OF REGENTS, THE UNIVERSITY OF TEXAS SYSTEM, priority 2014, dated 2024)", "key": {"[1]": {"tested_on": "BxPC-3 cells", "test": "Anti-proliferative activity, MTT assay, BxPC-3 cells", "assay_type": "cell-based, human", "conditions": "Homo sapiens; BxPC-3 cells, 72 h", "procedure": "(§1) The anti-proliferative activity of Gem-DHA was evaluated in Panc-02, TC-1, Panc-1-Luc, and BxPC-3 cell lines. For Panc-02 and TC-1 cells, cells (1,500/well for Panc-02 and 3,000/well for TC-1) were seeded in 96-well plates and incubated at 37° C. and 5% CO2 overnight. The cells were then treated with various concentrations of Gem-DHA or other compounds for 24 h. For BxPC-3 and Panc-1-Luc cells, 3,000 and 1,000 cells/well were used, respectively, and cells were co-incubated with the Gem-DHA for 72 h. Cell viability was determined using an MTT assay as previously described (Naguib YW et al. Mol Pharm. 2014, 11(4), 1239-1249). Gemcitabine HCl was dissolved in cell culture medium, whereas Gem-DHA and DHA were dissolved in dimethylsulfoxide (DMSO). The values of IC50 were calculated using GraphPad Prism (GraphPad software, Inc., La Jolla, CA)."}, "[2]": {"tested_on": "BxPC-3 cells", "test": "Cytotoxicity of Gem-ARA, MTT assay, BxPC-3 cells", "assay_type": "cell-based, human", "conditions": "Homo sapiens, up to 72 h, mean ± SD (n>3)", "procedure": "(§2) To understand the effect of the omega-3 polyunsaturated fatty acid nature of the DHA (i.e., the docosahexaedecanoyl group) in the Gem-DHA on its cytotoxicity against tumor cells, gemcitabine was also conjugated to arachidonic acid, an omega-6 polyunsaturated fatty acid, to synthesize 4-(N)-arachidonyl gemcitabine (Gem-ARA) (FIG. 4). Human pancreatic cancer cells (MIA PaCa-2 or BxPC-3) were seeded (3,000/well) in 96-well plates. After overnight incubation, cells were treated with various concentrations of gemcitabine HCl or Gem-ARA at 37° C., 5% CO2 for up to 72 h. Gemcitabine HCl was dissolved in phosphate buffered saline (PBS, pH 7.4, 10 mM), and Gem-ARA was dissolved in DMSO. The maximum amount of DMSO added per well was 0.9 μL, which was found non-toxic. The number of viable cells after the incubation was determined using an MTT assay as described above. The 50% inhibition concentration (IC50) values were estimated using GraphPad prism 5 parameters curve fittings."}, "[3]": {"tested_on": "Panc-02 cells", "test": "Anti-proliferative activity, MTT assay, Panc-02 cells", "assay_type": "cell-based", "conditions": "Mus musculus, Panc02, 24 h", "procedure": "as §1"}, "[4]": {"tested_on": "MIA PaCa-2 cells", "test": "Cytotoxicity of Gem-ARA, MTT assay, MIA PaCa-2 cells", "assay_type": "cell-based, human", "conditions": "Homo sapiens, up to 72 h, mean ± SD (n>3)", "procedure": "as §2"}, "[5]": {"tested_on": "advanced pancreatic cancer", "conditions": "cited from earlier work"}, "[6]": {"tested_on": "Panc-1-Luc tumors", "test": "Antitumor activity against orthotopic Panc-1-Luc tumors in nude mice, with tumor histology", "assay_type": "in vivo", "from_the_text": "Nude mice with intrapancreatically injected Panc-1-Luc human pancreatic cancer cells were used as a mouse model of pancreatic cancer. The National Institutes of Health guidelines for animal use and care were followed Animal protocols were approved by the Institutional Animal Care and Use Committee at the University of Texas at Austin. Panc-1-Luc cells (Muniz VP et al. Mol Cancer Res. 2011, 9(7), 867-877) were implanted orthotopically by injecting 1×10^6 cells into (the tail of) the pancreas.\nPanc-1-Luc cell suspension was prepared at a concentration of 2×10^7 per ml in a 1:1 (v/v) mixture of DMEM and Matrigel. Tumor cells were then injected into the pancreas of male athymic nude mice (6-8 weeks, Charles River Laboratories, Wilmington, Mass.) following a surgical procedure (Raut CP et al. Cancer Biol Ther. 2004, 3(12), 1217-1224; Bruns CJ et al. Neoplasia. 1999, 1(1), 50-62). Briefly, after mice were anesthetized using isoflurane, the skin and peritoneum were cut open about 1 cm in length using sterile surgical scalpels. The pancreas was pulled out, and 50 μL of the cell suspension were injected slowly until a small bleb was formed. After the needle was withdrawn, a small cotton plug was applied for 10 s. The pancreas was returned back, the peritoneum was sutured with Monocryl™ bioresorbable sutures (Ethicon, Somerville, N.J.), and the skin was then closed using surgical clips. Mice were s.c. injected with buprenorphine (0.1 mg/kg) as a pain killer and were left to heal for one week. Tumor progress was monitored using an IVIS™ Spectrum imaging system (Caliper, Hopkinton, MA). For IVIS imaging, each mouse was i.p. injected with a luciferin solution (15 mg/ml) at a dose of 0.15 mg/g body weight in sterile DPBS, anesthetized with isoflurane, and imaged 10 min after luciferin injection. Four weeks after tumor implantation, mice with tumors were randomized into 3 groups (n=5-7) and intraperitoneally injected (i.p) with Gem-DHA (50 mg/kg, ˜0.087 mmole/kg), gemcitabine HCl (26.1 mg/kg, ˜0.087 mmole/kg), or left untreated. Gem-DHA was in a Tween 80/ethanol/water solution with 5% (w/v) of mannitol, and gemcitabine HCl was in sterile mannitol solution (5%, w/v). Treatments were repeated twice a week for a total 7 doses. Thirty days after the first treatment, mice were sacrificed and tumors were dissected from the pancreas, weighed, and fixed in formalin. The doses were based on the average weight of mice in the same group on the day of injection, and were adjusted only if the weight of an individual mouse was above or below 10% of the average weight.\nTumor tissues were sectioned and stained in the Histology and Tissue Analysis Core at Dell Pediatric Research Institute at the University of Texas at Austin or in the Department of\nMolecular Carcinogenesis at the University of Texas M.D. Anderson Cancer Center at Science Park (Smithville, Texas) with hematoxylin & eosin (H&E), antibodies against cleaved lamin-A (apoptosis marker), CD-31 (angiogenesis marker), or Ki-67 (proliferation marker). Slides were then scanned, and images were taken using the ScanScope XT (Aperio Technologies, Vista, CA). […] In addition, several areas of necrosis can also be seen in the centers of the tumors. […] Several pyknotic cells with condensed chromatin can also be seen in tumors in mice that were treated with Gem-DHA."}, "[7]": {"tested_on": "Panc-1-Luc tumors", "test": "Orthotopic Panc-1-Luc tumors in nude mice: gemcitabine HCl versus mixture with DHA", "assay_type": "in vivo", "conditions": "about 0.11 mmole/kg each, twice a week, 10 times, started 2 weeks after implantation", "procedure": "The doses of both gemcitabine HCl (˜33.7 mg/kg) and DHA (˜35.3 mg/kg) were about 0.11 mmole/kg. Mice were sacrificed in the 8th week after tumor implantation, and the tumors were excised and weighed. The doses were based on the average weight of mice in the same group on the day of injection, and were adjusted only if the weight of an individual mouse was above or below 10% of the average weight."}, "[8]": {"design": "species or system BALB/c mice", "conditions": "female, BALB/c, mouse, in vivo, iv, 75 mg/kg, 1 h", "procedure": "The biodistribution of Gem-DHA was further evaluated in healthy BALB/c mice. Briefly, female BALB/c mice (Charles River, 14-16 weeks, n=3) were injected via the tail vein with Gem-DHA in a Tween 80/ethanol/water solution containing 5% (w/v) mannitol at a dose of 75 mg/kg. After 1 h, mice were euthanized to collect pancreas, lung, spleen, liver, heart, and kidneys. Gem-DHA was extracted from the samples and analyzed using HPLC. As a control, mice (n=3) were also injected with gemcitabine HCl (75 mg/kg) in 5% (w/v) mannitol solution and euthanized 1 h later to collect their pancreas. Gemcitabine was extracted using the following method. Briefly, once the pancreas was collected, it was weighed, placed into 0.25 ml of PBS containing 40 μg of tetrahydrouridine (a deoxycytidine deaminase inhibitor) and homogenized using a bead beater. Deoxyuridine (dU, 20 μl of 20 μg/ml) was then added into the homogenate as an internal standard. Acetonitrile was used to precipitate the proteins twice, and gemcitabine content in the supernatant was analyzed using HPLC. […] Therefore, it appeared that Gem-DHA preferred to distribute in pancreatic tissues."}, "[9]": {"tested_on": "Panc-02 tumor cells", "test": "Cytotoxicity after 4 h co-incubation, MTT test", "assay_type": "cell-based, mouse", "conditions": "Panc-02 cells, at concentrations of more than 80 μM", "procedure": "The mechanisms underlying the cytotoxicity of the Gem-DHA may be different from that of gemcitabine. For example, in cell culture studies, Panc-02 cells were seeded into 96-well plates (1,500 cells per well) and incubated at 37° C., 5% CO2 for 24 h. They were then co-incubated with various concentrations of Gem-DHA, gemcitabine HCl alone, or DHA alone for 4 h, and cell viability was determined using an MTT test."}, "[10]": {"target": "deoxycytidinedeaminases (dCDA) (Homo sapiens, UniProt P32320)", "sequence (P32320 whole entry)": "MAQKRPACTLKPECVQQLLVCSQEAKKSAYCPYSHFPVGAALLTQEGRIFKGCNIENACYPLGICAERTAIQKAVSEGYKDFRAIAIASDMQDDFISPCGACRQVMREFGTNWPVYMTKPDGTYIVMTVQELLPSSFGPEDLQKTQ", "conditions": "upon injection, extracellularly and intracellularly; cited from earlier work"}}, "note": "Structures can show the parent of a compound that is named as a salt.", "data": [{"smiles": "Nc1ccn([C@@H]2O[C@H](CO)[C@@H](O)C2(F)F)c(=O)n1", "note": "[Gemcitabine HCl, 2′, 2′-difluorodeoxycytidine, reference compound]", "values": [{"measurement": "IC50", "setting": "[1]", "result": "18.5 ± 14.5", "unit": "nM"}, {"measurement": "IC50", "setting": "[2]", "result": "5.52 ± 4.55", "unit": "nM"}, {"measurement": "IC50", "setting": "[3]", "result": "4 ± 1.5", "unit": "nM"}, {"measurement": "IC50", "setting": "[4]", "result": "50.2 ± 3", "unit": "nM"}, {"measurement": "Improvement in median survival duration", "setting": "[5]; patients with advanced pancreatic cancer", "result": 5, "unit": "week"}, {"measurement": "12-month survival", "setting": "[5]; standard care for advanced pancreatic cancer", "result": 18, "unit": "%"}, {"measurement": "Average tumor weight at the end of the study", "setting": "[6]; 30 days after first treatment, versus untreated", "result": "not significantly different from that in mice that were left untreated"}, {"measurement": "Inhibition of growth of Panc-1-Luc tumors", "setting": "[6]; i.p., ~0.087 mmole/kg (Gem-DHA 50 mg/kg, gemcitabine HCl 26.1 mg/kg), twice a week, 7 doses", "result": "did not significantly inhibit the growth"}, {"measurement": "Cleaved lamin-A positive staining in tumors", "setting": "[6]; versus untreated mice", "result": "not different from that in mice that were not treated"}, {"measurement": "Micro-vessel density (MVD) in tumors, anti-CD-31 staining", "setting": "[6]; versus untreated mice", "result": "not different from that in mice that were not treated"}, {"measurement": "Control of tumor growth (tumor weight)", "setting": "[7]", "result": "did not reveal any significant difference"}, {"measurement": "Percent of injected compound recovered in each gram of pancreas", "setting": "[8]", "result": "0.07±0.03", "unit": "%"}, {"measurement": "Cytotoxicity after 4 h of co-incubation", "setting": "[9]", "result": "did not show any significant cytotoxicity"}, {"measurement": "Fraction deaminated to dFdU", "setting": "[10]", "result": "over 90%"}]}]}
